Experimental data: PubChem BioAssay (NCI)
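Dose response: 5 concentrations. Exposure: 48 h. Format: 96-well plates. Endpoint: linear interpolation; highest concentration if not reached. Abbreviation: GI50, concentration required for 50% inhibition of growth. At the TGI there is no net growth.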

Tests used:
Assay in all cases: inhibition of tumour cell growth, NCI panel, 48 h
ACHN renal = test system: ACHN renal
RXF 393 renal = test system: RXF 393 renal
SNB-19 CNS = test system: SNB-19 CNS
LOX IMVI melanoma = test system: LOX IMVI melanoma
NCI/ADR-RES ovarian = test system: NCI/ADR-RES ovarian
HT29 colon = test system: HT29 colon
HL-60(TB) leukemia = test system: HL-60(TB) leukemia
HOP-62 NSCLC = test system: HOP-62 NSCLC
SK-OV-3 ovarian = test system: SK-OV-3 ovarian
MALME-3M melanoma = test system: MALME-3M melanoma

| SMILES | GI50 (ACHN renal) [µM] | TGI (ACHN renal) [µM] | GI50 (RXF 393 renal) [µM] | TGI (RXF 393 renal) [µM] | GI50 (SNB-19 CNS) [µM] | TGI (SNB-19 CNS) [µM] | GI50 (LOX IMVI melanoma) [µM] | TGI (LOX IMVI melanoma) [µM] | GI50 (NCI/ADR-RES ovarian) [µM] | TGI (NCI/ADR-RES ovarian) [µM] | GI50 (HT29 colon) [µM] | TGI (HT29 colon) [µM] | GI50 (HL-60(TB) leukemia) [µM] | TGI (HL-60(TB) leukemia) [µM] | GI50 (HOP-62 NSCLC) [µM] | TGI (HOP-62 NSCLC) [µM] | GI50 (SK-OV-3 ovarian) [µM] | TGI (SK-OV-3 ovarian) [µM] | GI50 (MALME-3M melanoma) [µM] | TGI (MALME-3M melanoma) [µM] |
| --- | --- | --- | --- | --- | --- | --- | --- | --- | --- | --- | --- | --- | --- | --- | --- | --- | --- | --- | --- | --- |
| COc1cc2c3c(n(CCCN=[N+]=[N-])c(=O)c2cc1OC)-c1ccc(F)cc1C3=O | 3.8 | > 100 | > 100 | > 100 | 4.35 | > 100 | 4.04 | > 100 | 7.44 | > 100 | 12.3 | > 100 | 44.4 | > 100 | 4.18 | > 100 | 11.6 | > 100 | > 100 | > 100 |
| CCOc1ccccc1/C=N\N=C(N/N=C/c1ccccc1OCC)N/N=C/c1ccccc1OCC | 1.56 | > 100 | 2.67 | > 100 | 2.2 | > 100 | 1.8 | > 100 | 1.7 | > 100 | 2.23 | > 100 | 5.21 | > 100 | 1.85 | > 100 | 1.65 | 6.15 | 5.69 | > 100 |
| COc1cc2c(cc1OC)[C@@H]1C(=O)c3ccc4c(c3O[C@@H]1CO2)C[C@H](C(C)C)O4 | 3.13 | > 46.4 | 16.4 | > 76.9 | 9.74 | > 78.1 | 0.264 |  | 0.248 | > 29.1 | 15.4 | > 58.6 | 1.51 | > 23.8 | 9.23 | > 60.6 | 14.4 | > 81.8 | 5.56 | 53.2 |
| CCCCCCOC(=O)CC1=C(C)/C(=C/c2[nH]c(-c3ccc[nH]3)cc2OC)N=C1C | 0.0663 | 0.779 | 0.163 | 1.07 | 0.271 | 2.76 | 0.0218 | 0.0565 | 0.135 | 1.33 | 0.0331 | 1.05 | 0.385 | 1.76 | 0.0982 | 1.15 | 0.279 | 1.24 | 0.345 | 1.44 |
| COc1ccc(C2c3ccc4ccccc4c3Oc3ncn(CCCn4ccnc4)c(=N)c32)cc1OC (centres undefined) | 4.42 | 16.2 | 1.78 | 4.64 | 11.2 | 26.7 | 1.88 | 3.7 | 3.96 | 17.4 | 2.2 | 5.6 | 2.04 | 4.05 | 5.03 | 18.4 | 5.8 | 18.4 | 2.12 | 3.89 |
| COc1cccc(/C=N\NC(=O)c2ccncc2)c1O | 2.96 | > 100 | 5.49 | > 100 | 6.72 | > 100 | 2.2 | > 100 | 2.84 | > 100 | 21.5 | > 100 | 2.27 | 8.73 | 5.36 | > 100 | 6.45 | > 100 | 6.62 | 88.3 |
